Paper PMC9917560, “Design, Synthesis and Antimicrobial Evaluation of New N-(1-Hydroxy-1,3-dihydrobenzo[c][1,2]oxaborol-6-yl)(hetero)aryl-2-carboxamides as Potential Inhibitors of Mycobacterial Leucyl-tRNA Synthetase” (International Journal of Molecular Sciences, 2023)
Converted amounts (≈) assume the structure as drawn. Read-outs that look alike come from different tables or passages of the source.

How the values were obtained:
[1] = test system: Mycobacterium tuberculosis H37Ra ITM-M006710 (ATCC 9431); experiment: Antimycobacterial microdilution (resazurin) vs Mtb H37Ra; format: cell-based; details: Middlebrook 7H9, resazurin, recalculated from µg/mL, read-out: MIC Mtb H37Ra
[2] = test system: Mycobacterium tuberculosis H37Rv CNCTC My 331/88 (ATCC 27294); experiment: Microplate Alamar Blue assay vs Mtb H37Rv; format: cell-based; details: Mycobacterium tuberculosis, pH 6.6, MABA, Middlebrook 7H9 pH 6.6, recalculated from µg/mL; read-out: MIC Mtb H37Rv
[3] = test system: Mycobacterium kansasii DSM 44,162 (ATCC 12478); experiment: Antimycobacterial microdilution (resazurin) vs M. kansasii; format: cell-based; details: Middlebrook 7H9, resazurin, read-out: MIC M. kansasii
[4] = test system: Mycobacterium avium DSM 44,156 (ATCC 25291); experiment: Antimycobacterial microdilution (resazurin) vs M. avium; format: cell-based; details: Mycobacterium avium, Middlebrook 7H9, resazurin; read-out: MIC M. avium
[5] = test system: Mycolicibacterium aurum DSM 43,999 (ATCC 23366); experiment: Antimycobacterial microdilution (resazurin) vs M. aurum; format: cell-based; details: read-out: MIC M. aurum
[6] = test system: Mycolicibacterium smegmatis DSM 43,465 (ATCC 607); experiment: Antimycobacterial microdilution (resazurin) vs M. smegmatis; format: cell-based; details: Middlebrook 7H9, resazurin, read-out: MIC M. smeg.
[7] = test system: Staphylococcus aureus subsp. aureus CCM 4223 (ATCC 29213); experiment: Antibacterial microdilution broth (EUCAST); format: cell-based; details: read-out: MIC Staphylococcus aureus subsp. aureus
[8] = test system: methicillin-resistant Staphylococcus aureus subsp. aureus (MRSA) CCM 4750 (ATCC 43300); experiment: microbe, parasite or virus in culture; format: cell-based; details: read-out: MIC Methicillin-resistant Staphylococcus aureus subsp. aureus
[9] = test system: Staphylococcus epidermidis CCM 4418 (ATCC 12228); experiment: Antibacterial microdilution broth (EUCAST); format: cell-based; details: read-out: MIC Staphylococcus epidermidis
[10] = test system: Enterococcus faecalis CCM 4224 (ATCC 29212); experiment: Antibacterial microdilution broth (EUCAST); format: cell-based; details: read-out: MIC Enterococcus faecalis
[11] = test system: Escherichia coli CCM 3954 (ATCC 25922); experiment: Antibacterial microdilution broth (EUCAST); format: cell-based; details: for MIC: Escherichia coli, read-out: MIC Escherichia coli
[12] = test system: Klebsiella pneumoniae CCM 4415 (ATCC 10031); experiment: Antibacterial microdilution broth (EUCAST); format: cell-based; details: for MIC: Klebsiella pneumoniae, read-out: MIC Klebsiella pneumoniae
[13] = test system: Acinetobacter baumannii DSM 30007 (ATCC 19606); experiment: Antibacterial microdilution broth (EUCAST); format: cell-based; details: read-out: MIC Acinetobacter baumannii
[14] = test system: Pseudomonas aeruginosa CCM 3955 (ATCC 27853); experiment: Antibacterial microdilution broth (EUCAST); format: cell-based; details: read-out: MIC Pseudomonas aeruginosa
[15] = test system: Candida albicans CCM 8320 (ATCC 24433); experiment: Antifungal microdilution broth (EUCAST); format: cell-based; details: Candida albicans, read-out: MIC Candida albicans
[16] = test system: Candida krusei CCM 8271 (ATCC 6258); experiment: Antifungal microdilution broth (EUCAST); format: cell-based; details: Pichia kudriavzevii, read-out: MIC Candida krusei
[17] = test system: Candida parapsilosis CCM 8260 (ATCC 22019); experiment: Antifungal microdilution broth (EUCAST); format: cell-based; details: Lodderomyces parapsilosis, read-out: MIC Candida parapsilosis
[18] = test system: Candida tropicalis CCM 8264 (ATCC 750); experiment: Antifungal microdilution broth (EUCAST); format: cell-based; details: read-out: MIC Candida tropicalis
[19] = test system: Aspergillus fumigatus ATCC 204305; experiment: Antifungal microdilution broth (EUCAST); format: cell-based; details: Aspergillus fumigatus, ATCC204305, read-out: MIC Aspergillus fumigatus
[20] = test system: Aspergillus flavus CCM 8363; experiment: Antifungal microdilution broth (EUCAST); format: cell-based; details: Aspergillus flavus, CCM8363, read-out: MIC Aspergillus flavus
[21] = test system: Lichtheimia corymbifera CCM 8077; experiment: Antifungal microdilution broth (EUCAST); format: cell-based; details: Lichtheimia corymbifera, CCM8077, read-out: MIC Lichtheimia corymbifera
[22] = test system: Trichophyton interdigitale CCM 8377 (ATCC 9533); experiment: Antifungal microdilution broth (EUCAST); format: cell-based; details: Trichophyton interdigitale, read-out: MIC Trichophyton interdigitale
HepG2 cell line = experiment: Cytotoxicity screening, CellTiter 96 assay; details: Homo sapiens, HepG2, 24 h, read-out: IC50 HepG2

Compound: O=C(Nc1ccc2c(c1)B(O)OC2)c1ccc(Cl)cc1 [Compound 14, 4-chloro-N-(1-hydroxy-1,3-dihydrobenzo[c][1,2]oxaborol-6-yl)benzamide]
- MIC [1]: 435 µM (≈ 125 µg/mL)
- MIC [2]: 43.5 µM (≈ 12.5 µg/mL)
- MIC [3]: 217 µM (≈ 62.5 µg/mL)
- MIC [4]: 435 µM (≈ 125 µg/mL)
- MIC ([5]; Middlebrook 7H9, resazurin): 13.6 µM (≈ 3.91 µg/mL)
- MIC [6]: 217 µM (≈ 62.5 µg/mL)
- MIC ([7]; 24h incubation): > 500 µM
- MIC ([7]; 48h incubation): > 500 µM
- MIC ([8]; 24 h): > 500 µM
- MIC ([8]; 48 h): > 500 µM
- MIC ([9]; 24h incubation): > 500 µM
- MIC ([9]; 48h incubation): > 500 µM
- MIC ([10]; 24h incubation): > 500 µM
- MIC ([10]; 48h incubation): > 500 µM
- MIC ([11]; 24h incubation): > 500 µM
- MIC ([11]; 48h incubation): > 500 µM
- MIC ([12]; 24h incubation): > 500 µM
- MIC ([12]; 48h incubation): > 500 µM
- MIC ([13]; 24h incubation): > 500 µM
- MIC ([13]; 48h incubation): > 500 µM
- MIC ([14]; 24h incubation): > 500 µM
- MIC ([14]; 48h incubation): > 500 µM
- MIC ([15]; 24h incubation): > 125 µM
- MIC ([15]; 48h incubation): > 125 µM
- MIC ([16]; 24h incubation): > 125 µM
- MIC ([16]; 48h incubation): > 125 µM
- MIC ([17]; 24h incubation): > 125 µM
- MIC ([17]; 48h incubation): > 125 µM
- MIC ([18]; 24h incubation): > 125 µM
- MIC ([18]; 48h incubation): > 125 µM
- MIC ([19]; 24h incubation): > 125 µM
- MIC ([19]; 48h incubation): > 125 µM
- MIC ([20]; 24h incubation): > 125 µM
- MIC ([20]; 48h incubation): > 125 µM
- MIC ([21]; 24h incubation): > 125 µM
- MIC ([21]; 48h incubation): > 125 µM
- MIC ([22]; 72h incubation): > 125 µM
- MIC ([22]; 120h incubation): > 125 µM
- melting point: 225.5 to 228.1 °C
- IC50 (HepG2 cell line): > 1000 µM

Compound: O=C(Nc1ccc2c(c1)B(O)OC2)c1ccc(Cl)s1 [Compound 15, 5-chloro-N-(1-hydroxy-1,3-dihydrobenzo[c][1,2]oxaborol-6-yl)thiophene-2-carboxamide]
- MIC [1]: 53.2 µM (≈ 15.6 µg/mL)
- MIC [2]: 42.6 µM (≈ 12.5 µg/mL)
- MIC [3]: 106 µM (≈ 31.3 µg/mL)
- MIC [4]: 426 µM (≈ 125 µg/mL)
- MIC [5]: 53.2 µM (≈ 15.6 µg/mL)
- MIC [6]: 852 µM (≈ 250 µg/mL)
- MIC ([7]; 24h incubation): 500 µM (≈ 147 µg/mL)
- MIC ([7]; 48h incubation): 500 µM (≈ 147 µg/mL)
- MIC ([8]; 24 h): 500 µM (≈ 147 µg/mL)
- MIC ([8]; 48 h): 500 µM (≈ 147 µg/mL)
- MIC ([9]; 24h incubation): 500 µM (≈ 147 µg/mL)
- MIC ([9]; 48h incubation): 500 µM (≈ 147 µg/mL)
- MIC ([10]; 24h incubation): > 500 µM
- MIC ([10]; 48h incubation): > 500 µM
- MIC ([11]; 24h incubation): > 500 µM
- MIC ([11]; 48h incubation): > 500 µM
- MIC ([12]; 24h incubation): > 500 µM
- MIC ([12]; 48h incubation): > 500 µM
- MIC ([13]; 24h incubation): > 500 µM
- MIC ([13]; 48h incubation): > 500 µM
- MIC ([14]; 24h incubation): > 500 µM
- MIC ([14]; 48h incubation): > 500 µM
- MIC ([15]; 24h incubation): > 500 µM
- MIC ([15]; 48h incubation): > 500 µM
- MIC ([16]; 24h incubation): > 500 µM
- MIC ([16]; 48h incubation): > 500 µM
- MIC ([17]; 24h incubation): > 500 µM
- MIC ([17]; 48h incubation): > 500 µM
- MIC ([18]; 24h incubation): > 500 µM
- MIC ([18]; 48h incubation): > 500 µM
- MIC ([19]; 24h incubation): > 500 µM
- MIC ([19]; 48h incubation): > 500 µM
- MIC ([20]; 24h incubation): > 500 µM
- MIC ([20]; 48h incubation): > 500 µM
- MIC ([21]; 24h incubation): > 500 µM
- MIC ([21]; 48h incubation): > 500 µM
- MIC ([22]; 72h incubation): > 500 µM
- MIC ([22]; 120h incubation): > 500 µM
- melting point: 234.9 to 237.1 °C
- IC50 (HepG2 cell line): 210 µM

Compound: O=C(Nc1ccc2c(c1)B(O)OC2)c1cscn1 [Compound 16, N-(1-hydroxy-1,3-dihydrobenzo[c][1,2]oxaborol-6-yl)thiazole-4-carboxamide]
- MIC [1]: 120 µM (≈ 31.3 µg/mL)
- MIC [2]: 96.1 µM (≈ 25 µg/mL)
- MIC [3]: 30 µM (≈ 7.81 µg/mL)
- MIC [4]: 240 µM (≈ 62.5 µg/mL)
- MIC ([5]; Middlebrook 7H9, resazurin): 15 µM (≈ 3.91 µg/mL)
- MIC [6]: 30 µM (≈ 7.81 µg/mL)
- MIC ([7]; 24h incubation): 125 µM (≈ 32.5 µg/mL)
- MIC ([7]; 48h incubation): 125 µM (≈ 32.5 µg/mL)
- MIC ([8]; 24 h): 250 µM (≈ 65 µg/mL)
- MIC ([8]; 48 h): 500 µM (≈ 130 µg/mL)
- MIC ([9]; 24h incubation): 500 µM (≈ 130 µg/mL)
- MIC ([9]; 48h incubation): > 500 µM
- MIC ([10]; 24h incubation): > 500 µM
- MIC ([10]; 48h incubation): > 500 µM
- MIC Escherichia coli ([11]; 48h incubation): no inhibition
- MIC ([11]; 24h incubation): 500 µM (≈ 130 µg/mL)
- MIC ([11]; 48h incubation): > 500 µM
- MIC Klebsiella pneumoniae ([12]; 48h incubation): no inhibition
- MIC ([12]; 24h incubation): 500 µM (≈ 130 µg/mL)
- MIC ([12]; 48h incubation): > 500 µM
- MIC ([13]; 24h incubation): > 500 µM
- MIC ([13]; 48h incubation): > 500 µM
- MIC ([14]; 24h incubation): > 500 µM
- MIC ([14]; 48h incubation): > 500 µM
- MIC ([15]; 24h incubation): > 500 µM
- MIC ([15]; 48h incubation): > 500 µM
- MIC ([16]; 24h incubation): > 500 µM
- MIC ([16]; 48h incubation): > 500 µM
- MIC ([17]; 24h incubation): > 500 µM
- MIC ([17]; 48h incubation): > 500 µM
- MIC ([18]; 24h incubation): > 500 µM
- MIC ([18]; 48h incubation): > 500 µM
- MIC ([19]; 24h incubation): > 500 µM
- MIC ([19]; 48h incubation): > 500 µM
- MIC ([20]; 24h incubation): > 500 µM
- MIC ([20]; 48h incubation): > 500 µM
- MIC ([21]; 24h incubation): > 500 µM
- MIC ([21]; 48h incubation): > 500 µM
- MIC ([22]; 72h incubation): > 500 µM
- MIC ([22]; 120h incubation): > 500 µM
- melting point: 225.7 to 227.9 °C
- IC50 (HepG2 cell line): > 1000 µM
